Values joined by “and” are separate entries in the source; they are usually repeats but may differ in a detail not shown here. Equal values may be shown once.
Experiments:
[1] = system: s.c. HER2(+) BT-474 tumors; assay: Dosimetry calculations (estimated absorbed doses, therapeutic index); conditions: optimized anti-HER2-DOTA-PRIT, from 1.0-336 h biodistribution
Excerpt: For each tissue, the non-decay-corrected time-activity concentration data were fit using Excel to a 1-component, 2-component, or more complex exponential function as appropriate, and analytically integrated to yield the cumulated activity concentration per unit administered activity (MBq-h/g per MBq). The ^177Lu equilibrium dose constant for non-penetrating radiations (8.49 g-cGy/MBq-h) was used to estimate the tumor-to-tumor and select organ-to-organ self-absorbed doses, assuming complete local absorption of the ^177Lu beta rays only, and ignoring the gamma ray and non-self dose contributions.

[2] = Clinical chemistry panel; assay type: in vivo, mouse; conditions: small tumors; single-cycle study, 55.5 MBq; ~85 d

Nc1ccc(CC2CN(CC(=O)[O-])CCN(CC(=O)[O-])CCN(CC(=O)[O-])CCN2CC(=O)[O-])cc1.[177Lu+3] (stereo not drawn) [^177Lu-DOTA-Bn]
Estimated absorbed dose, Blood [1]: 1.4 cGy/MBq
Estimated absorbed dose, Bone [1]: 0.7 cGy/MBq
Estimated absorbed dose, Heart [1]: 0.4 cGy/MBq
Estimated absorbed dose, Kidneys [1]: 5.6 cGy/MBq
Estimated absorbed dose, Large Intestine [1]: 0.8 cGy/MBq
Estimated absorbed dose, Liver [1]: 3.3 cGy/MBq
Estimated absorbed dose, Lung [1]: 1.3 cGy/MBq
Estimated absorbed dose, Muscle [1]: 0.9 cGy/MBq
Estimated absorbed dose, Small Intestine [1]: 0.4 cGy/MBq
Estimated absorbed dose, Spleen [1]: 0.3 cGy/MBq
Estimated absorbed dose, Stomach [1]: 0.3 cGy/MBq
Estimated absorbed dose, Tumor [1]: 39.9 cGy/MBq
ALT [2]: 34 U/L and 40 U/L and 30 U/L and 45 U/L and 24 U/L
BUN [2]: 22 mg/dL and 21 mg/dL and 23 mg/dL and 33 mg/dL and 38 mg/dL
CREA [2]: 0.20 mg/dL and 0.18 mg/dL and 0.19 mg/dL and 0.30 mg/dL and 0.22 mg/dL
